Read-outs that look alike come from different tables or passages of the source.
Columns and labels:
[1] = biological target: RET recombinant protein (RET-wild type) (Homo sapiens (Human), UniProt P07949); assay: Evaluation of RET kinase inhibiting activity (cell-free system), mobility shift assay; type: biochemical
Experimental: (§1) 19 uL of the RET kinase solution was added to each of lines A to P of a 384-well plate, and thereafter, the test compound at each concentration was added to lines C to N, and further, 1 uL of dimethyl sulfoxide (hereinafter referred to as DMSO) was added to each of lines A, B, O and P. Thereafter, the obtained mixtures were each preincubated at room temperature for 20 minutes. Furthermore, a substrate solution A containing ATP (final concentration: 1 mM) and a substrate solution B containing no ATP, both in addition to a reaction buffer and FL-Peptide 22 (PerkinElmer, #760366, final concentration: 1.5 uM) were produced. The substrate solution A was added in an amount of 5 uL to lines B to 0, whereas the substrate solution B was added in an amount of 5 uL to lines A and P. The obtained mixtures were each incubated at 28° C. for 45 minutes. A reaction termination solution (100 mM HEPES (pH 7.4), 0.015% Briji-35, 40 mM EDTA, and 0.1% Coating Reagent 3) was added in an amount of 40 ul to the reaction mixture, so as to terminate the reaction.
(§2) Using EZ Reader II (Perkin Elmer), a substrate peptide was separated from a phosphorylated peptide in the reaction solution, and the product ratio (P/(P+S)) calculated from the peak (S) of the substrate peptide and the peak (P) of the phosphorylated peptide was used for evaluation. The inhibition of the test compound having each concentration was obtained by the following formula (automatically calculated using the software of EZ Reader II System). Inhibition (%)=100×(1−Ci/Co) (a) Ci: Conversion rate of a reaction of a test compound with substrate solution A−conversion rate of a reaction of DMSO with substrate solution B Co: Conversion rate of a reaction of DMSO with substrate solution A−conversion rate of a reaction of DMSO with substrate solution B
(§3) Based on the inhibition rates of the test compound at 12 different concentrations according to the formula (a), a 4-parameter logistic regression curve was drawn. At this time, the 4-parameter logistic regression equation is expressed as follows. Inhibition (%)=Bottom+(Top−Bottom)/(1+(X/IC50)^^slope) (b) Top: Upward asymptote Slope: Slope parameter IC50: Value X of (Top+Bottom)/2 Bottom: Downward asymptote X: Concentration of test compound
(§4) First, any given initial values are inputted into Top, Slope, IC50, Bottom (Top=100, Slope=−1, IC50=approx. IC50, and Bottom=0), so that a regression curve was drawn. Subsequently, a least-squares method was executed to the sum of squares of a difference between the measured value and the estimated value obtained from formula (b) to calculate the coefficient of the 4-parameter logistic regression equation, so as to calculate IC50.

[2] = biological target: RET-Gatekeeper mutation (V804L) recombinant protein (Homo sapiens (Human), UniProt P07949, V804L); assay: Evaluation of RET kinase inhibiting activity (cell-free system), gatekeeper mutant; type: biochemical
RET-Gatekeeper mutation (V804L) recombinant protein, sequence (P07949 29-1114 V804L): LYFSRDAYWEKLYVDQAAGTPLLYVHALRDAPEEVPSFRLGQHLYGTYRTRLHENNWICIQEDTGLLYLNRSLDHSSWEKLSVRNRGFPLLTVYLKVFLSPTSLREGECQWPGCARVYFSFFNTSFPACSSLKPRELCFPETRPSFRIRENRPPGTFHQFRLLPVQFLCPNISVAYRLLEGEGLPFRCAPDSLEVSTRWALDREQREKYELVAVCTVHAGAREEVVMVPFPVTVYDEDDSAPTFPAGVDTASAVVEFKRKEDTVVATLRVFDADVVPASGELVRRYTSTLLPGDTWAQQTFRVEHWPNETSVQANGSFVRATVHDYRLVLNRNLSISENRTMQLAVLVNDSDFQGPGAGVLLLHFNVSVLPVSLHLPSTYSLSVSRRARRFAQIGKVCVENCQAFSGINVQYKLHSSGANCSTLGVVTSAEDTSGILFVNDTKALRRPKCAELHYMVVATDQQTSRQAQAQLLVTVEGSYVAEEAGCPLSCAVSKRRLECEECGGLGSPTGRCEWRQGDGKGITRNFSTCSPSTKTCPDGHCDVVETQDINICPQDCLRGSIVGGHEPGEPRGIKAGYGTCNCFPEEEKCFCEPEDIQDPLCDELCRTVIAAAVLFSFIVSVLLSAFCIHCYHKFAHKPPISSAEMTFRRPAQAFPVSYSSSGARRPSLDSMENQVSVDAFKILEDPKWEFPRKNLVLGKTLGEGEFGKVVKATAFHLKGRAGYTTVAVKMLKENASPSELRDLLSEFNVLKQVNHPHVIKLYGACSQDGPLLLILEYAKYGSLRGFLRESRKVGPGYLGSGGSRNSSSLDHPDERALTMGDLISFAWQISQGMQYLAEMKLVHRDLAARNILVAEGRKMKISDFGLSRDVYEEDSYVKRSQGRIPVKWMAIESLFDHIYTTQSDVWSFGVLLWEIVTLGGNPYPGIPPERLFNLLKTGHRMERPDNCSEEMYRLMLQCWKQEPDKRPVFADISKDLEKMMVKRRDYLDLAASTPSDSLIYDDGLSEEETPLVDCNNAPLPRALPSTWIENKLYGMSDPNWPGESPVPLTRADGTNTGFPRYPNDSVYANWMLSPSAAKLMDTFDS
Experimental: as §1, §2, §3, §4

[3] = biological target: RET-wild type (Homo sapiens (Human), UniProt P07949); assay: Evaluation of RET kinase inhibiting activity (cell system), Ba/F3 cells overexpressing Myc tagged RET; type: cell-based; conditions: Ba/F3, compound 2 hours, read-out: RET-wild type IC50
RET-wild type, sequence (P07949 29-1114): as the sequence (P07949 29-1114 V804L) above, with L776V counted along it
Experimental: (§5) Thereafter, 1 mL of Cell Lysis Buffer (Cell signaling technology, #9803), a single tablet of Phosphatase inhibitor (Roche, #04906837001), and a single tablet of Protease inhibitor (Roche, #0469312400) were added to 9 mL of MilliQ, and 20 ul of the obtained mixture was then added to each well. The mixture thus obtained was placed on ice for 20 minutes, so that the cells were lysed. A 5-ul aliquot was taken from the cell lysate, and thereafter, 64 nl of Myc antibody (Cell signaling technology, #3946) and Streptavidin Donor beads in an equal amount of 102 nl of P-Tyr-100 Acceptor beads included in the Alpha Screen Phosphotyrosine (P-Tyr-100) assay kit (Perkin Elmer, #6760620C) were added to the aliquot in accordance with the instruction manual included with the aforementioned assay kit. The obtained mixture was reacted at room temperature overnight, and a RET kinase inhibiting activity rate was then measured using Envision.

[4] = biological target: RET-V804L (Homo sapiens (Human), UniProt P07949, V804L); assay: Evaluation of RET kinase inhibiting activity (cell system), Ba/F3 cells overexpressing RET (V804L) mutant; type: cell-based; conditions: Ba/F3, compound 2 hours
RET-V804L, sequence (P07949 29-1114 V804L): as the sequence (P07949 29-1114 V804L) above
Experimental: as §5

[5] = test system: phosphorylated RET (ETV-RET) in Ba/F3-RET tumors; assay: One shot PKPD analysis, Ba/F3-RET tumors; type: in vivo, mice
Experimental: Murine pro-B cells, Ba/F3, expressing fusion protein of ets variant 6 (ETV)-RET and ETV-RET-V804L were constructed by Daiichi Sankyo RD Novare Co., Ltd., and cultivated in RPM11640 medium (Thermo Fisher Scientific K.K.) supplemented with 10% (v/v) heat-inactivated fetal bovine serum (FBS, GE Healthcare) and 1.5 µg/mL puromycin in a CO2 incubator that was set at 37° C. with a 5% CO2 atmosphere. The cells were suspended in DPBS and inoculated subcutaneously into mice at 1.0×10^7 cells per mouse. After the tumor had reached a size of 100 to 200 mm^3, the mice were randomized based on tumor diameter and the test compounds (10 mg/kg, Compound 229 or Example 3) which were dissolved in 1% (w/v) hydroxypropyl methylcellulose solution were administrated orally. Control group was administrated with 1% (w/v) hydroxypropyl methylcellulose solution. […] Protein concentration of tumor lysate was quantified by colorimetric reagent (Thermo Fisher Scientific K.K.) and all were diluted to the same concentration by lysis buffer. […] The chemiluminescence reaction of HRP and the substrate (Pierce ECL Plus Western Blotting Substrate, Cat. No. 32132, Thermo Fisher Scientific K.K.) was detected by an image scanner Typhoon 9400 (GE Healthcare). Signal intensities fo phosphorylated RET (pRET) and RET were quantified and calculated as following methods. […]

RET recombinant protein (RET-wild type), sequence (P07949 29-1114): as the sequence (P07949 29-1114 V804L) above, with L776V counted along it

IC50 ([1]; cell-free system, ATP 1 mM, read-out: RET-wild type IC50): 4.6 nM
IC50 ([1]; non-cell system, read-out: Biochemical assay (non-cell system) IC50 (nM) RET-WT): 4.6 nM
IC50 ([2]; cell-free system, ATP 1 mM, read-out: RET-V804L IC50): 6.3 nM
IC50 ([2]; non-cell system, read-out: Biochemical assay (non-cell system) IC50 (nM) RET-V804L): 6.3 nM
IC50 [3]: 4 nM
IC50 [4]: 15 nM
SMILES: COc1cc2cc(-c3ccc(CC(=O)Nc4cc(C(C)(C)C(F)(F)F)no4)cn3)cnc2cc1OC [Example 3, 2-[6-(6,7-Dimethoxyquinolin-3-yl)pyridin-3-yl]-N-[3-(1,1,1-trifluoro-2-methylpropan-2-yl)-1,2-oxazol-5-yl]acetamide]
inhibition of pRET in Ba/F3-RET tumors ([5]; 10 mg/kg oral): clearly inhibited
Relative phosphorylation of RET (%) in Ba/F3-RET tumors ([5]; Dose: 10 mg/kg oral, six hours after administration, relative to vehicle): 6%

Source: patent US10851092B2, “Pyridine compound” (Daiichi Sankyo Company, Limited, priority 2016, dated 2020)
